Results as given in patent publication US6599548B2, “Ambient stable beverage” (priority 2000, dated 2003).
Values after ≈ are worked out from the molar mass of the structure shown. Like-named read-outs stand apart in the source and are kept apart here.

Assays:
Type in all cases: cell-based
fungi = assay: Fungicidal activity of pasteurisation adjuncts at 50° C. versus 30° C. (MIC50); details: for Importance: rating of importance as pasteurisation adjunct
Experimental: In the table the minimum inhibitory concentration (MIC) is given for each compound as well as the molecular weight (M.W.), the logPoct and a rating of its importance. […] The logPoct, that is the logarithm of the partition coefficient of the relevant compound in octanol and thus a measure of its […], was determined using […]™ software from the CHEMOFFICE ULRA ENHANCED 2000™ software package (version 5.5) that is commercially available from CambridgeSoft.

[1] = Minimum inhibitory concentration (MIC) of antimicrobials / essential oils
Excerpt: The minimum inhibitory concentration (MIC) is given for each compound.
In each case the respective minimum inhibitory concentration (MIC) and their specific preferred concentration is also given.

[2] = tested on: yeast Saccharomyces cerevisiae X2180-1B; assay: Yeast growth in Ready to Drink tea (0.14% tea, pH 3.4) after 2 min at temperature, OD 600 nm at 14 days; details: RTD tea; for prevention of yeast growth by low levels of the adjunct: adjunct 0-12 ppm in combination with cinnamic acid 0-60 ppm
[3] = read-out: MIC50 in ppm (in brackets under the mM value)
[4] = minimum inhibitory concentration, fungicidal activity when heated to 50° C.
[5] = Table I, preferred essential oils
[6] = Table II, particularly preferred essential oils
[7] = 20° C., adjunct 0-12 ppm, cinnamic acid 0-60 ppm

Compound: CCCCCCCCCC=CC=O [2-Dodecenal]
- Importance (fungi): High
- MIC50 (fungi; [3]): < 9 mg/L

Compound: CC(C)C(=O)OCCOc1ccccc1 [2-Phenoxylethyl isobutyrate]
- Importance (fungi): High

Compound: CCCCCCCCCCC=CC=O [2-Tridecenal]
- Importance (fungi): High
- MIC50 (fungi; [3]): < 9.8 mg/L

Compound: CCCCCCCCCC(C)=O [2-Undecanone]
- Importance (fungi): High

Compound: C=CCOC(=O)CCC1CCCCC1 [Allyl cyclohexanepropionate]
- Importance (fungi): High

Compound: CCCCCOC(=O)CCCCC [Amyl hexanoate]
- Importance (fungi): High

Compound: O=C(c1ccccc1)C(O)c1ccccc1 (centres unmarked) [Benzoin]
- Importance (fungi): 10

Compound: CCCCCCC(=O)OCCCC [Butyl heptanoate]
- Importance (fungi): High

Compound: C=C(C)C1CC=C(C)C(OC(=O)CC)C1 (centres unmarked) [Carvyl propionate]
- MIC50 (fungi; [4]): 5 mM

Compound: O=C(O)C=Cc1ccccc1 [Cinnamic acid]
- MIC [1, 5]: 148 mg/L (≈ 999 µM)
- MIC (ppm) [1, 6]: 148 ppm

Compound: CC(C)c1ccc(CO)cc1 [Cumic alcohol]
- MIC (ppm) [1, 5]: 450 ppm
- MIC (ppm) [1, 6]: 450 ppm

Compound: CCCCCCCCCCOC(C)=O [Decyl acetate]
- fungicidal activity at 30° C. (fungi): no fungicidal activity
- fungicidal activity when heated to 50° C. (fungi): significant fungicidal activity
- Importance (fungi): High
- effect on yeast growth at low temperature [2, 7]: little effect
- effect on yeast growth at low temperature ([2]; FIGS. 23, 24, adjunct alone 0-200 ppm, low temperature): little effect
- prevention of yeast growth by low levels of the adjunct [2]: prevention of yeast growth

Compound: CCCCCCCCCCOC(=O)CC [Decyl propionate]
- Importance (fungi): High

Compound: C=C(C)C1CCC(C)C(O)C1 (centres unmarked) [Dihydrocarveol]
- MIC (ppm) [1, 5]: 540 ppm

Compound: CCCCCCCC=CC(=O)OCC [Ethyl 2-decenoate]
- Importance (fungi): High

Compound: C=CCCCCCCCCC(=O)OCC [Ethyl 10-undecenoate]
- Importance (fungi): High

Compound: CCCCCCCCCC(=O)OCC [Ethyl decanoate]
- Importance (fungi): High

Compound: CCCCCCCCC(=O)OCC [Ethyl nonanoate]
- Importance (fungi): High

Compound: CC(=O)OC/C=C(\C)CCC=C(C)C [Geranyl acetate]
- Importance (fungi): High

Compound: CC(=O)CC/C=C(\C)CCC=C(C)C [Geranyl acetone]
- Importance (fungi): High

Compound: CCCC(=O)OC/C=C(\C)CCC=C(C)C [Geranyl butyrate]
- Importance (fungi): High

Compound: CCC(=O)OC/C=C(\C)CCC=C(C)C [Geranyl propionate]
- Importance (fungi): High

Compound: CCCCCCCOC(=O)CCC [Heptyl butyrate]
- Importance (fungi): High

Compound: CCCCCCOC(=O)CCCCC [Hexyl hexanoate]
- Importance (fungi): High

Compound: CCCCCC(=O)OCCC(C)C [Isoamyl hexanoate]
- Importance (fungi): High

Compound: CCCCCCCCCCCC(=O)O [Lauric acid]
- Importance (fungi): High
- MIC50 (fungi; [3]): 20 mg/L

Compound: CCCCCCCCCCCCO [Lauric alcohol]
- MIC50 (fungi; [4]): 0.1 mM
- MIC50 in ppm (in brackets under the mM value) (fungi; [4]): (18.6 ppm
- Importance (fungi): High
- effect on yeast growth at low temperature [2, 7]: little effect
- prevention of yeast growth by low levels of the adjunct [2]: prevention of yeast growth

Compound: CCCCCCCCCCCC=O [Lauric aldehyde]
- MIC50 (fungi; [4]): 0.2 mM
- MIC50 in ppm (in brackets under the mM value) (fungi; [4]): (36 ppm
- Importance (fungi): High

Compound: CCCCCCCCCC(=O)OC [Methyl decanoate]
- Importance (fungi): High

Compound: CCCCCCCCCCCC(=O)OC [Methyl laurate]
- Importance (fungi): High

Compound: CCCCCCCCC(=O)OC [Methyl nonanoate]
- Importance (fungi): High

Compound: CCCCCCCCCCC(=O)OC [Methyl undecanoate]
- Importance (fungi): High

Compound: CC=CCCCCCCCC(=O)OC [Methyl-9-undecenoate]
- Importance (fungi): High

Compound: CCCCCCCCCCCCCC(=O)O [Myristic acid]
- Importance (fungi): High

Compound: CC1(C)C2CC=C(CO)C1C2 (centres unmarked) [Myrtenol]
- MIC (ppm) [1, 5]: 137 ppm
- MIC (ppm) [1, 6]: 137 ppm

Compound: CC1CCC(C(C)C)C(O)C1 (centres unmarked) [Neomenthol]
- MIC (ppm) [1, 5]: 156 ppm

Compound: C=CC(C)(O)CCC=C(C)CCC=C(C)C (centres unmarked) [Nerolidol]
- Importance (fungi): High

Compound: CC(C)=CCC/C(C)=C\COC(=O)C(C)C [Neryl isobutyrate]
- Importance (fungi): High

Compound: CCCCCCCCCOC(C)=O [Nonyl acetate]
- Importance (fungi): High

Compound: CCCCCCCCOC(=O)CCC [Octyl butyrate]
- Importance (fungi): High

Compound: CCCCCC(=O)OCCc1ccccc1 [Phenethyl hexanoate]
- Importance (fungi): High

Compound: CC(=O)OCc1ccc2c(c1)OCO2 [Piperonyl acetate]
- MIC [1, 5]: 242 mg/L
- MIC (ppm) [1, 6]: 242 ppm

Compound: CC=CC=CC=O [Sorbic aldehyde (2,4-hexadienal)]
- MIC (ppm) [1, 5]: 86 ppm

Compound: CCCCCCCCCCCCC=O [Tridecanal]
- Importance (fungi): High

Compound: CCCCCCCCCCCCC(=O)O [Tridecanoic acid]
- Importance (fungi): High

Compound: CCCCCCCCCCCCCO [Tridecanol]
- Importance (fungi): High

Compound: O=C1CCCCCCCCCCCCCCO1 [w-Pentadecalactone]
- MIC50 (fungi; [4]): 60 mM

Compound: C/C(C=O)=C\c1ccccc1 [α-Methyl-trans-cinnamaldehyde]
- MIC (ppm) [1, 5]: 58.4 ppm

Compound: C=C1CC/C=C(\C)CC[C@@H]2[C@@H]1CC2(C)C [β-Caryophylene]
- MIC50 (fungi; [4]): 70 mM

Compound: CCCCCC1CCC(=O)O1 (centres unmarked) [γ-Nonanoic lactone]
- MIC (ppm) [1, 5]: 63 ppm

Compound: CCCCCCCC1CCC(=O)O1 (centres unmarked) [γ-Undecalactone]
- MIC (ppm) [1, 5]: 28 ppm

Compound: CCCC1CCCC(=O)O1 (centres unmarked) [δ-Octalactone]
- MIC (ppm) [1, 5]: 568 ppm

Compound: Tolualdehyde
- MIC (ppm) [1, 5]: 240 ppm

Compound: methyl decenoate
- fungicidal activity at 30° C. (fungi): no fungicidal activity
- fungicidal activity when heated to 50° C. (fungi): significant fungicidal activity

Compound: w-6-Hexadecalactone
- MIC50 (fungi; [4]): 50 mM
